Legend:
[1] = Fluorescent intensity at various pH in buffer solution containing 50% DMSO; assay type: physicochemical
Method: The fluorescent intensities of Compound 9 at various pH were measured in buffer solution containing 50% DMSO. […] Such increase takes place at more acidic side than that of naphthyl imide-type pH-responsive fluorescent compound.

[2] = tested on: Parkin-expressed HeLa cells; assay: Flow cytometry (FCM) analysis of mitophagy, CCCP induction; assay type: cell-based; conditions: 100 nmol/L, 10 μM/L CCCP for 24 hours
Method: HeLa cells were seeded on a 24 well plate and incubated in a CO2 incubator at 37° C. overnight. Parkin plasmid was introduced using HilyMax (DOJINDO LABORATORIES) into the cells and the cells were further incubated overnight. The cultured cells were washed with a plasma-containing medium, to which Compound 9 diluted with Hanks' HEPES buffer (100 nmol/L) was added and incubated for 30 minutes. After washing with the plasma-containing medium, the cells were cultured in a cell culture medium containing 10 μM/L of CCCP for 24 hours. After washing with PBS, the cells were peeled off by trypsin and EDTA. The cells were collected by centrifuge, dispersed in 0.5 mL of HBSS and analyzed by FCM (BD FACS cant II).

[3] = tested on: Parkin-expressed HeLa cells; assay: Confocal laser microscopic detection of mitophagy, CCCP induction; assay type: cell-based; conditions: 100 nmol/L, 10 μM/L CCCP for 24 hours, 1 μM Lyso Dye
Excerpt: Methods for inducing mitophagy include, in addition to a bulk method such as described in Example 3 above, a selective method mediated with Parkin gene and PINK1 enzyme. The latter involves Parkinson disease and the relationship with a quality control of dysfunctional mitochondria (For example, see Derek Narendra, Atsushi Tanaka, Der-Fen Suen and Richard J. Youle, J. Cell Biol., 2008, 183, 795-803.). To examine the mitochondria-selective detection of autophagy, Parkin-expressed HeLa cells were prepared and the mitophagy was induced by adding Compound 9 and carbonyl cyanide m-chlorophenyl hydrazone (CCCP), a mitochondrial uncoupler and incubating.
HeLa cells were seeded on a μ-slide 8 well (Ibidi) and incubated in a CO2 incubator at 37° C. overnight. Parkin plasmid was introduced using HilyMax (DOJINDO LABORATORIES) into the cells and the cells were incubated overnight. The cultured cells were washed with a plasma-containing medium, to which Compound 9 diluted with Hanks' HEPES buffer (100 nmol/L) was added and incubated for 30 minutes. After washing with the plasma-containing medium, the cells were cultured in a cell culture medium containing 10 μM/L of CCCP for 24 hours. After the occurrence of mitophagy was monitored by the fluorescent microscope, the cultured cells were further incubated with 1 μM Lyso Dye at 37° C. for 30 minutes.

[4] = tested on: Parkin-non-expressed HeLa cells; assay: as above; assay type: cell-based; conditions: 100 nmol/L, 10 μM/L CCCP for 24 hours
[5] = pH-dependent excitation and fluorescence spectra in buffer solution containing 50% acetonitrile; assay type: physicochemical
Method: To investigate a pH-dependent fluorescent emission of Compound 9, excitation spectra (“Excitation” in FIG. 1) and fluorescence spectra (“Fluorescence” in FIG. 1) were measured at pH 4.0 and 7.4 in buffer solution containing 50% acetonitrile.

HeLa cells = assay: Mitophagy detection test using HeLa cells (starvation induction), fluorescent microscope; assay type: cell-based; conditions: 100 nmol/L, 30 min, 1 μM Lyso Dye
Method: HeLa cells were seeded on a μ-slide 8 well (Ibidi) and incubated in a CO2 incubator at 37° C. overnight. Compound 9 diluted with Hanks' HEPES buffer (100 nmol/L) was added and incubated for 30 minutes. A starvation induction was carried out by washing cultured cells with Hanks' HEPES buffer twice follow by adding plasma-free Krebs' buffer containing 1 μM glucagon and 7.5 μM pepstatin A and incubating at 37° C. for appropriate period. Then, the cultured cells were observed by a fluorescent microscope. To confirm the uptake of Compound 9 in lysosomes, 1 μM Lyso Dye diluted with Hanks' HEPES buffer was added to the cultured cells and incubated at 37° C. for 30 minutes.

O=C(CCN1C(=O)c2ccc3c4cccc5c(N6CCN(Cc7ccc(CCl)cc7)CC6)ccc(c6ccc(c2c36)C1=O)c54)NCC[P+](c1ccccc1)(c1ccccc1)c1ccccc1.[Br-] [Compound 9]
change of fluorescent intensity responding to pH [1]: increases from a neutral region to an acidic region | increase of fluorescent emission on induction of mitophagy using CCCP [2]: 1.3 times | fluorescence from compound and co-staining with lysosome dye [3]: is observed as well as the collateral stain with a lysosome dye (Lyso Dye) is observed | fluorescence from compound [4]: faint | fluorescent intensity at pH 4.0 compared with pH 7.4 ([5]; buffer solution containing 50% acetonitrile, pH 4.0 vs 7.4): higher than that at pH 7.4 | shift of maximum fluorescent wavelength to short-wavelength side ([5]; pH 4.0 vs pH 7.4, buffer solution containing 50% acetonitrile): 30 nm | self-aggregation behaviour ([5]; polar solvent, leads to decrease of fluorescent intensity): tends to form a self-aggregate in a polar solvent | co-staining with Lyso Dye (uptake in lysosomes) (HeLa cells): collateral stain took place

Source: patent publication US10787473B2, “PH responsive fluorescent compound, composition for detecting mitophagy using same, and method for detecting mitophagy within cells” (DOJINDO LABORATORIES, priority 2016, dated 2020)
